Values after ≈ are worked out from the molar mass of the structure shown.
Columns and labels:
ArgF [1] = target: T1, ArgF (Mycobacterium tuberculosis, UniProt P9WIT9); assay: biochemical; assay type: binding; conditions: fragments at 5 mM, 5 µM ArgF, 5% DMSO; read-out: DSF ΔTm
Protocol: Fragment screening was carried out in a 96-well PCR plate using a CFX Connect Real-time PCR Detection System (Bio-Rad) for DSF. […] For ArgF each 25 μL reaction mixture contained 5 µM ArgF, 25 mM Tris-HCl (pH 8.0), 150 mM NaCl, 5x SYPRO Orange dye, 5 mM fragments and 5% DMSO (v/v). […] The protocol implemented increased temperature by 0.5 °C after every 30 s, going from 25 °C to 95 °C and measuring SYPRO Orange fluorescence for each temperature cycle. The melt curve RFU (relative fluorescence units) and derivative -d(RFU)/dT values were analysed and plotted using a macros-enabled Excel Workbook: the minima of the melt curves were recorded as the melting temperature (Tm) of the enzymes in the presence of each fragment. The Tm of the reference control (protein in the presence of DMSO) was subtracted from all the readings to calculate ΔTm.

ArgF [2] = target: T1, ArgF; assay: Isothermal titration calorimetry with ArgF; assay type: binding; conditions: 25 °C, single-site model; read-out: ITC Kd
Protocol: ArgF was dialysed in 50 mM HEPES pH 8.0, 200 mM NaCl before it was loaded into the calorimetry cell at concentrations of 75–100 μM with the addition of 1 mM DTT. Ligand solutions at concentrations of 1 mM were dissolved in the same buffer and typically injected between 0.5 μL and 2 μL at 150 s intervals with stirring at 750 rpm. Buffer-ligand titrations were carried out as reference runs and subtracted from the protein–ligand titration to remove the heat of dilution. Data were analysed by fitting a simple single-site model using Origin software (Microcal).

ArgB [3] = target: T2, ArgB (Mycobacterium tuberculosis, UniProt P9WQ01); assay: Differential scanning fluorimetry (DSF) fragment screening against ArgB; assay type: binding; conditions: fragments at 5 mM, 10 µM ArgB, 5% DMSO
Protocol: Fragment screening was carried out in a 96-well PCR plate using a CFX Connect Real-time PCR Detection System (Bio-Rad) for DSF. For ArgB, each 25 μL reaction mixture contained 10 µM ArgB, 100 mM HEPES (pH 7.5), 200 mM NaCl, 5x SYPRO Orange, 5% DMSO (v/v), and fragments at 5 mM. For ArgF each 25 μL reaction mixture contained 5 µM ArgF, 25 mM Tris-HCl (pH 8.0), 150 mM NaCl, 5x SYPRO Orange dye, 5 mM fragments and 5% DMSO (v/v). For ArgC and ArgD, the 25 μL reaction volume consisted of the following: 2.5 μM ArgC/5 μM ArgD, 100 mM sodium phosphate pH 7, 200 mM NaCl, 5x SYPRO Orange, and 5 mM fragments (960 fragment library). The protocol implemented increased temperature by 0.5 °C after every 30 s, going from 25 °C to 95 °C and measuring SYPRO Orange fluorescence for each temperature cycle. The melt curve RFU (relative fluorescence units) and derivative -d(RFU)/dT values were analysed and plotted using a macros-enabled Excel Workbook: the minima of the melt curves were recorded as the melting temperature (Tm) of the enzymes in the presence of each fragment. The Tm of the reference control (protein in the presence of DMSO) was subtracted from all the readings to calculate ΔTm.

ArgB [4] = target: T2, ArgB; assay: Ligand-observed NMR (CPMG) with ArgB, incl. displacement experiments; assay type: binding; conditions: 2 mM fragment, 10 µM ArgB; for NMR competition with natural ligands (ATP, NAG, L-arginine): 1 mM each natural ligand
ArgB [5] = target: T2, ArgB; assay: Ligand-observed NMR (STD) with ArgB; assay type: binding; conditions: 2 mM fragment, 10 µM ArgB
ArgB [6] = target: T2, ArgB; assay: biochemical; assay type: binding; conditions: 25 °C, single-site model; read-out: ITC Kd
ArgB [7] = target: T2, ArgB; assay: ArgB enzymatic assay (ADP release coupled to NADH oxidation, pyruvate kinase/lactate dehydrogenase); assay type: biochemical; conditions: for IC50: 0.5 µM ArgB, 0.3 mM ATP, 1.25 mM NAG, 10% DMSO, read-out: IC50; for Nature of ArgB inhibition in enzymatic competition assays: 0.3 mM ATP or NAG, other substrate varied
Protocol: ArgB activity was assessed by a colorimetric assay that followed the release of ADP by measuring the oxidation of NADH at 340 nm, for 30 min, in the presence of pyruvate kinase and lactate dehydrogenase in a PHERAstar plate-reader (BMG-Labtech). […]. Inhibitors were also individually screened against the coupled enzymes to eliminate any compounds interfering with the other assay components. Competition assays were performed in the same conditions using 0.3 mM of ATP or NAG and varying the other substrate concentration.

M. tuberculosis H37Rv = assay: microbe, parasite or virus in culture; assay type: cell-based, Mycobacterium tuberculosis; conditions: for MIC: Mycobacterium tuberculosis, media without arginine; for Inhibitory activity on growth with arginine present: arginine (1 mM) in the media
M. tuberculosis ΔargB-c = assay: microbe, parasite or virus in culture; assay type: cell-based, Mycobacterium tuberculosis; conditions: for MIC: Mycobacterium tuberculosis
[8] = system: M. tuberculosis MDR strain V2475; assay: microbe, parasite or virus in culture; assay type: cell-based, Mycobacterium tuberculosis; conditions: for MIC: Mycobacterium tuberculosis
ArgD [9] = target: T3, ArgD (Mycobacterium tuberculosis, UniProt P9WPZ7); assay: Differential scanning fluorimetry (DSF) against ArgD; assay type: binding; conditions: fragments at 5 mM, PLP-unsaturated ArgD
T3 sequence (P9WPZ7 whole entry, the tested form may be a part): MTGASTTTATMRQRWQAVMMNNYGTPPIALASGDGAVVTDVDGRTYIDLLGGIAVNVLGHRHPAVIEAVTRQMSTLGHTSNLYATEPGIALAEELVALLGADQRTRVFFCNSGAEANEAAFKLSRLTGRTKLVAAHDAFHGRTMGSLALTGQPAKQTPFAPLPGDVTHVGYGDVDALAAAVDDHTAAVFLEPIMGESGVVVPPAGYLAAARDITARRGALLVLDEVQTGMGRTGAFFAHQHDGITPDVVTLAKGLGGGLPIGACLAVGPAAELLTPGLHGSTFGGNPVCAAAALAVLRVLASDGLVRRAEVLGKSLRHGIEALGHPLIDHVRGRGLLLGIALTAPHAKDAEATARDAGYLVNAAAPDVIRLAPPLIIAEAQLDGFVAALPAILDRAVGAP

ArgD [10] = target: T3, ArgD; assay: Surface plasmon resonance with immobilised ArgD; assay type: binding; conditions: fragments at 1 mM, adjusted for molecular weight
ArgD [11] = target: T3, ArgD; assay: ArgD end point enzymatic assay (reverse reaction, 2-aminobenzaldehyde, 440 nm); assay type: biochemical
Protocol: To assess the activity of ArgD an end point assay that follows the reverse reaction of the enzyme was used in the presence and absence of fragments. Reactions (100 μL) were set up containing the following: 100 mM Tris-HCl pH 8, 3 mM N-acetylornithine (NAO), 3.4 mM α-KG, 20 μM PLP and 4 μM enzyme. Duplicate reaction mixtures were prepared for each time point and 8 time points (0, 5, 10, 15, 20, 30, 45, 60 min) were tested in total. Two controls were prepared: one with all reaction components except the enzyme, and the other with all reaction components except NAO (NAO was added after HCl treatment). The reactions tubes were allowed to equilibrate in a heating block set at 37 °C for two minutes, and the enzyme was added to initiate the reaction. After the stipulated incubation times, contents of the reaction tubes were quickly transferred to 1.5 ml microcentrifuge tubes containing 60 μL of 6 N HCl to stop the reactions. These tubes were then kept in a heating block set at 95 °C for 30 min, after which they were cooled to 25 °C in a water bath. 200 μL of 3.6 M sodium acetate was added to each tube (final concentration of 1.8 M), along with 40 μL of 30 mM 2-aminobenzaldehyde (final concentration of 3 mM in a total volume of 400 μL). A yellow colouration started developing as soon as the latter was added, the contents were vortexed and the tubes were incubated at 25 °C for 15 min. 200 μL of each reaction mixture was transferred into wells of a 96-well flat bottom UV transparent microplate, and absorbance at 440 nm was measured using the PHERAstar plate reader. All experiments were performed at least in triplicate in a PHERAstar plate-reader (BMG-Labtech) and the control without ArgD was used for blank subtraction. Data were analysed with GraphPad Prism (Graphpad Software). All reagents were obtained from Sigma-Aldrich.
Aminotransferases are often assayed for the reverse reactions they catalyse because in most cases substrates for the forward reaction are not commercially sold. […]

M. tuberculosis = system: M. tuberculosis; parameters: method as in PMID 29483133; conditions: BALB/c mice, chemical inhibition of ArgJ; cited from earlier work

T1 sequence (P9WIT9 whole entry, the tested form may be a part): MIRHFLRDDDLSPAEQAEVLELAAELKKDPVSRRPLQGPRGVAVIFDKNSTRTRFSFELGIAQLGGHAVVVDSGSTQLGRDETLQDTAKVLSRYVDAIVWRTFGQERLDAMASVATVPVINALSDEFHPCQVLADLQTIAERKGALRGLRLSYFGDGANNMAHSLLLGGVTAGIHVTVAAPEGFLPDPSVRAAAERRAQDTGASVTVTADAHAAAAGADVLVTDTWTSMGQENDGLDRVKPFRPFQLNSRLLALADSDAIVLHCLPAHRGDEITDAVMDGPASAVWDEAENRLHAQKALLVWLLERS

| Structure (SMILES) | ΔTm at 5000 µM (ArgF [1]) [°C] | Kd (ArgF [2]) [µM] | ΔTm at 5000 µM (ArgB [3]) [°C] | CPMG (ArgB [4]) | NMR competition with natural ligands (ATP, NAG, L-arginine) (ArgB [4]) | STD (ArgB [5]) | Kd (ArgB [6]) [µM] | IC50 (ArgB [7]) [µM] | Nature of ArgB inhibition in enzymatic competition assays (ArgB [7]) | MIC (M. tuberculosis H37Rv) [µg/mL] | Inhibitory activity on growth with arginine present (M. tuberculosis H37Rv) | Inhibitory activity on growth with arginine present (M. tuberculosis ΔargB-c) | MIC (M. tuberculosis ΔargB-c) [µg/mL] | MIC [8] [µg/mL] | other results |
| --- | --- | --- | --- | --- | --- | --- | --- | --- | --- | --- | --- | --- | --- | --- | --- |
| Cc1sc(N)nc1-c1ccccc1 [NMR007] | 3 | 161 ± 20 | – | – | – | – | – | – | – | – | – | – | – | – | – |
| O=c1cc[nH]c2c(C(F)(F)F)cccc12 [NMR446, 8-(trifluoromethyl)-1H-quinolin-4-one] | – | – | 8 | binds | not competitive | binds | 24 ± 1.5 | 707 ± 7 | non-competitive | > 200 | no inhibitory activity | no inhibitory activity | > 200 | > 200 | – |
| O=C(O)c1cc2ccccc2cc1O [NMR608, 3-Hydroxy-2-naphthoic acid] | – | – | – | – | – | – | – | – | – | – | – | – | – | – | ΔTm at 5000 µM (ArgD [9]): 2.4 °C; SPR Binding Response with PLP injection (ArgD [10]): 50.3 RU; % inhibition at 2 mM (ArgD [11]; 2 mM fragment, 4 μM ArgD): 16.6%; inhibition at 2000 µM (ArgD [11]; 2 mM fragment, 4 μM ArgD): 16%; inhibition at 4000 µM (ArgD [11]; read-out: % inhibition at 4 mM, 4 mM fragment, 4 μM ArgD): 31% |
| O=c1cc(C(F)(F)F)[nH]c2c(C(F)(F)F)cccc12 [NMR711, 2,8-bis(trifluoromethyl)-1H-quinolin-4-one] | – | – | 7.9 | binds | not competitive | binds | 7.7 ± 0.8 | 366 ± 4 | non-competitive | 25 to 50 (≈ 88.9 to 178 µM) | inhibitory | inhibitory | 25 to 50 (≈ 88.9 to 178 µM) | 25 to 50 (≈ 88.9 to 178 µM) | Inhibitory activity on growth with arginine present ([8]; V2475, arginine (1 mM) in the media): inhibitory |
| OB(O)c1cc(Cl)cc(Cl)c1 [NMR812] | 3.6 | 120 ± 30 | – | – | – | – | – | – | – | – | – | – | – | – | – |
| O=C(Nc1cccc2c(=O)cc(-c3nnn[nH]3)oc12)c1ccc(OCCCCc2ccccc2)cc1 [Pranlukast] | – | – | – | – | – | – | – | – | – | – | – | – | – | – | Effect on chronic M. tuberculosis infection (M. tuberculosis): cleared a chronic M. tuberculosis infection |

— PMC8220418, “A fragment-based approach to assess the ligandability of ArgB, ArgC, ArgD and ArgF in the L-arginine biosynthetic pathway of Mycobacterium tuberculosis” (Computational and Structural Biotechnology Journal, 2021)
